Data from patent US20050239873A1 (priority 1999, published 2005).

What was measured:
Stability in plasma [1] = type: in vitro ADME, mouse; conditions: for stability: 37° C., 60 min
Experimental: (§1) For analysis of samples, two volumes of cold methanol-acetonitrile (50:50, v/v) were added to portions of plasma, culture medium, or cell extract. The preparations were mixed and then centrifuged to obtain clear supernatants, which were dried at room temperature by compressed air. The residues were dissolved in the mobile phase, and a portion was injected onto the HPLC column.
(§2) The HPLC equipment consisted of a Hewlett Packard 1050 ChemStation with a fluorescence detector (Agilent 100 series). […] The mobile phase was methanol:ammonium acetate buffer (87:13 v/v; 0.2 M; pH 5.8, adjusted with HCl). The flow rate was 1 ml/min. The column elute was monitored fluorometrically at an excitation wavelength of 232 nm and an emission wavelength of 418 nm. The amounts of test compounds present in samples were determined from the peak areas.
(§3) Samples of mouse, rat, dog, and human plasma were incubated at 37° C. with and without addition of NaF (2.5 mg/ml) and EDTA (1 mg/ml). To these preparations, 2-OMe antimycin A1, 2-OMe antimcyin A2, 2-OMe antimycin A3, or 2-OMe antimycin A5, dissolved in methanol, was added to final concentrations of 500 ng/ml. Portions of plasma, taken at selected times after addition of the 2-OMe antimycin analog, were extracted and analyzed.
(§4) Similarly, the stability of 2-OMe antimycin A1, 2-OMe antimycin A2, […] in the plasma from mice and humans was evaluated at −80° C. From these preparations, portions were analyzed immediately; other portions were stored at -80° C. and analyzed after 1, 2, and 4 weeks.

Stability in plasma [2] = type: in vitro ADME, rat; conditions: 37° C., 60 min, presence of NaF/EDTA
Experimental: as §1, §2, §3

Stability in plasma [3] = type: in vitro ADME, dog; conditions: 37° C., 60 min; for stability: presence of NaF/EDTA
Experimental: as §1, §2, §3

Stability in plasma [4] = type: in vitro ADME, human; conditions: for stability: 60 min
Experimental: as §1, §2, §3, §4

plasma proteins [5] = assay: Binding to plasma proteins (ultrafiltration); type: in vitro ADME, mouse; conditions: presence of NaF+EDTA, 1000 ng/ml
Experimental: (§5) Solutions of 2-OMe antimycin A3 were diluted with plasma (dog or human) containing NaF+EDTA to final concentrations of 1.0 or 0.2 μg/ml. Controls were diluted with water to the same final concentrations. These preparations were incubated at 37° C. for 20 min, at which time portions were taken and placed in the sample reservoirs of Amicon Centrifree® ultrafiltration systems (Millipore Co., Bedford, Mass.). At 37° C., the filter systems were centrifuged until the reservoirs were dry. From each filtrate, portions were taken for analysis by HPLC. The amounts present were designated as “free drug” (F). The concentrations of the unfiltered solutions were also determined by triplicate analyses. This amount represented the “total drug” concentration (T). The percentage of 2-OMe antimycin A3 bound to plasma proteins was calculated by the following formula: % bound=((T−F)/T)×100

plasma proteins [6] = assay: Binding to plasma proteins (ultrafiltration); type: in vitro ADME, rat; conditions: presence of NaF+EDTA, 1000 ng/ml
plasma proteins [7] = assay: Binding to plasma proteins (ultrafiltration); type: in vitro ADME, dog; conditions: presence of NaF+EDTA, 1000 ng/ml
Experimental: as §5
Similar experiments were performed for 2-OMe antimycin A3 in dog or rat plasma in the absence of NaF/EDTA.

plasma proteins [8] = assay: Binding to plasma proteins (ultrafiltration); type: in vitro ADME, human; conditions: presence of NaF+EDTA, 1000 ng/ml
Experimental: as §5

RPMI-8226 cells = assay: GI50 assay (MTT); type: cell-based, human
Experimental: RPMI 8226 cells were grown in 96 well plates for 24 h prior to addition of 2-methoxy Antimycins. Antimycin stocks in DMSO were serially diluted in RPMI media. Cells were incubated for 48 h with compounds at final compound concentrations ranging from 10^−4 to 10^−8 M. MTT assays were performed in quadruplicate and percent growth inhibitions were calculated as (A570 (control cells)—A570 (treated cells))/A570 (control cells). The GI50 was extrapolated from semi-log plots of the dose response for each compound. […] After 72 h drug exposures, 1 μCi/ml [^3H]-thymidine was added to wells. Cells were incubated for an additional 24 h, and then transferred to GF/C filter plates (Packard) using a plate washer. Filters were dried, added to scintillant, and counted in a TopCount scintillation counter (Packard). Drug response was expressed as the percentage of vehicle-treated controls, and each value shown as the average of three determinations.

[9] = molecular target: T1, recombinant human Bcl-2ΔC22 (Homo sapiens, UniProt P10415); assay: Antimycin A3 fluorescence binding and competition assay; conditions: 2 μM each, Bcl-2 3 μM, 7.5 minutes, 22.5° C.
T1 construct: poly-His (N); made in house
T1 sequence (P10415 1-217 limits assumed, stated change not applied): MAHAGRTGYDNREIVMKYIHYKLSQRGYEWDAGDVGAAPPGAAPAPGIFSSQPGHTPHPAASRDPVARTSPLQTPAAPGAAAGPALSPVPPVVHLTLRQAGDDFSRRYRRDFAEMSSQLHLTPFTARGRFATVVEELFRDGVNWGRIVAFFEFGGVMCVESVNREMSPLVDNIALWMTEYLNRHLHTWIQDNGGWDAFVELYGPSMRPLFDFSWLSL
Experimental: In this assay, 0 to 5 μM antimycin A3 (Sigma Chemical Co., St. Louis, Mo.) was added to a physiological buffer (50 mM Tris-HCl pH 8.0, 0.2 M NaCl, 2 mM EDTA, 0.5% v/v glycerol) containing recombinant Bcl-2 or BCl-xL protein under conditions that permitted antimycin A3 to bind to the BH3-binding domain of Bcl-2 or BCl-xL (22.5° C. on a Hitachi F-2500 fluorescence spectrofluorimeter equipped with a thermostatted cell holder). […] The excitation wavelength was 335 nm, and the maximum emission wavelength for antimycin A3 was 428 nm with a slit width of 10 nm. The samples were mixed in a quartz cuvette and checked for inner filter effect over the concentration range of antimycin A3 used for this study. Blanks containing antimycin A3 at the same concentration as the experimental samples were used as controls in all measurements and necessary background corrections were made.
Recombinant human Bcl-2ΔC22 (a recombinant human Bcl-2 with a delection of 22 amino acid residue membrane anchor sequence from the carboxyl end) and mouse Bcl-xLΔC20 (a recombinant murine BCl-xL with a delection of the 20 amino acid residue membrane anchor sequence from the carboxyl end) fused with poly-His at the N-terminus were chromatographically purified to homogeneity. The concentrations of antimycin A3 and stock solutions of recombinant proteins were quantitated using an extinction coefficient of 7.24/mM/cm at 320 nm and by Bradford assay, respectively. The stoichiometric ratio of antimycin A3 and Bcl-2 producing the maximal change in antimycin A3 fluorescence was determined with incremental addition of antimycin A3 to a 1.98 μM solution of recombinant Bcl-2 in a volume of 2.1 milliliters. […] For peptide displacement experiments, a solution of 2 μM antimycin A3 and 3 μM Bcl-2 was allowed to reach binding equilibrium at 4° C. prior to fluorescence measurements. Native peptide corresponding to the BH3 domain of Bak (72-[…]87 (SEQ ID NO:1)) or a mutant peptide with a single amino acid change (Leu78Ala-BH3) was added to the solution and the fluorescence measurements were repeated. […]

Bcl-xL(ΔC) WT = molecular target: T2, Bcl-xL(ΔC) WT (Homo sapiens, UniProt Q07817); assay: Pore-forming activity, calcein release from liposomes; type: biochemical
T2 construct: inferred from Ni-NTA purification and the pET22b(+) NdeI/XhoI cloning); made in house; host or cells: Escherichia coli BL21(DE3) carrying pUB520
T2 sequence (Q07817 1-211 limits assumed, stated change not applied): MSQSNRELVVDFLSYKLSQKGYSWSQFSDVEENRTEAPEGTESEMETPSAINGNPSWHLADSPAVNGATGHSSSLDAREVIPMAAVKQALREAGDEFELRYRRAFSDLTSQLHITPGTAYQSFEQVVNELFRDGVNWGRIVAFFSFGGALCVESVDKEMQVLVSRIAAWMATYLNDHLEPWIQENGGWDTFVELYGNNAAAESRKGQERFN
Experimental: Large unilamellar vesicles composed of 60% dioleoylphophatidylcholine and 40% dioleoylphosphatidylglycerol were prepared by the extrusion method of Mayer et al., supra. Lipid stocks, in chloroform, were mixed and dried under a stream of nitrogen gas. The lipid was resuspended by vortexing for 30 min in a solution of 40 mM calcein (Molecular Probes), 25 mM KCl, and 10 mM KOAc, pH 5.0. After 10 freeze-thaw cycles, the lipid suspension was extruded through two 0.1 μm pore diameter Nucleopore filters. Non-entrapped dye was removed by passage over a Sephadex G10 column (Amersham Biosciences). Lipid concentration was measured using the ammonium ferrothiocyanate method (Stewart, Anal. Biochem. 104:10-14, 1980).
For pore assays, recombinant truncated Bcl-2 family protein or mutant protein (Bcl-xL(ΔC)) (500 nM) was added to large unilamellar vesicles (60 μM lipid concentration) in 100 mM KCl, 10 mM KOAc, pH 5.0, and fluorescence measured (490 nm excitation, 520 nm emission) with a Fluoromax-3 spectrophotometer. Peptides of the BH3 domain were incubated with the BCl-xL(ΔC) 5 min prior to mixing with liposomes. AA1 was added to liposomes 1 min before adding the Bcl-xL(ΔC) protein. Samples for kinetic assays were analyzed in a thermostatted cuvette at 37° C. with constant stirring. Dose responses were measured in black quartz microplates (Hellma) at room temperature. Calcein release was expressed as percentage of maximum release with detergent lysis (0.1% Triton X-100).

Compound	stability (Stability in plasma [1]; presence of NaF/EDTA)	amounts remaining after 4 weeks (Stability in plasma [1]; -80° C., presence of NaF/EDTA)	amounts remaining after 4 weeks (Stability in plasma [1]; −80° C., absence of NaF/EDTA)	stability (Stability in plasma [2])	stability (Stability in plasma [3])	stability (Stability in plasma [4]; 37° C., presence of NaF/EDTA)	amounts remaining after 4 weeks (Stability in plasma [4]; -80° C., presence of NaF/EDTA)	amounts remaining after 4 weeks (Stability in plasma [4]; −80° C., absence of NaF/EDTA)	Protein binding, Mouse (plasma proteins [5])	Protein binding, Rat (plasma proteins [6])	Protein binding, Dog (plasma proteins [7])	Protein binding, Human (plasma proteins [8])	activity relative to 2-OMeA1, 2-OMeA2 and 2-OMeA3 (GI50) (RPMI-8226 cells)	added amount remaining (Stability in plasma [3]; absence of NaF/EDTA, 500 ng/ml)	decrease in concentration (Stability in plasma [4]; 37° C., presence of NaF/EDTA)	GI50 (RPMI-8226 cells; 48 h, MTT)	competition with antimycin A3 for Bcl-2 [9]	effect on Bcl-xL pore-forming activity (Bcl-xL(ΔC) WT)
CC[C@H]1C(=O)O[C@H](C)[C@H](NC(=O)c2cccc(NC=O)c2OC)C(=O)O[C@@H](C)[C@@H]1OC(=O)CC(C)C [2-OMeA5, 2-OMe antimycin A5]	notable decreases in concentration	63%	27%	notable decreases in concentration	stable	stable	92%	79%	99.7%	>99.9%	99.1%	99.6%	approximately ⅓	–	–	–	–	–
CCCCCC[C@H]1C(=O)O[C@H](C)[C@H](NC(=O)c2cccc(NC=O)c2OC)C(=O)O[C@@H](C)[C@@H]1OC(=O)CCC [2-OMeA2, 2-methoxy antimycin A2]	generally stable	77%	63%	generally stable	generally stable	generally stable	83%	70%	99.7%	99.9%	99.9%	>99.9%	–	53%	18%	12.2 µM	–	–
CCCC[C@H]1C(=O)O[C@H](C)[C@H](NC(=O)c2cccc(NC=O)c2OCC(=O)c2ccccc2)C(=O)O[C@@H](C)[C@@H]1OC(=O)CC(C)C [phenacyl ether antimycin A3]	–	–	–	–	–	–	–	–	–	–	–	–	–	–	–	–	did not displace antimycin A3	no effect
